Measurements taken from patent US11999732B2, “P2X3 receptor antagonists” (RECORDATI INDUSTRIA CHIMICA E FARMACEUTICA SPA, priority 2018, dated 2024).
Like-named read-outs stand apart in the source and are kept apart here.

Target: T1, human P2X3 receptor (Homo sapiens, UniProt P56373)
T1 construct: expressed in transfected cells; host or cells: CHO-K1
T1 sequence (P56373 1-397): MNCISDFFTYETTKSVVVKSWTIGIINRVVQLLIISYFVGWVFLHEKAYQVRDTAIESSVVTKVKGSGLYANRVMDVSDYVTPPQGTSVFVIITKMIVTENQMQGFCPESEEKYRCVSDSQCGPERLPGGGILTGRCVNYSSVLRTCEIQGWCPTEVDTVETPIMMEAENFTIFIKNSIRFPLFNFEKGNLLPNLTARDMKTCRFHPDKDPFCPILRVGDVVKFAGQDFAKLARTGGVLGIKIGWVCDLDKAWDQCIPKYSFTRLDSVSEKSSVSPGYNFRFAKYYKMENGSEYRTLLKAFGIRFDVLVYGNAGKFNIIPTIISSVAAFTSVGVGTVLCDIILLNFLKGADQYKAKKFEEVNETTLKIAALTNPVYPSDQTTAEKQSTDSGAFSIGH
Experiment: Calcium luminescence (photoprotein) assay in CHO-K1 cells co-expressing human P2X3 receptor, α,β-Met-ATP stimulation, FLEXSTATION readout
Type: cell-based
How it was run: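 CHO-K1 cells co-expressing human P2X3 and a Ca2+-sensitive photoprotein, loaded with coelenterazine in Tyrode's buffer (pH 7.4) for 4 h at 37 °C. Compounds injected 4 min before α,β-Met-ATP stimulation; luminescence recorded, IC50 and pseudo-Hill slope from nonlinear regression of inhibition curves.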

[1] = Table 6, human P2X3 receptor antagonist activity, CHO-K1 cells, α,β-Met-ATP, read-out: h-P2X3 IC50
[2] = Table 7, human P2X3 receptor antagonist activity, CHO-K1 cells, α,β-Met-ATP, read-out: h-P2X3 IC50
[3] = Table 8, human P2X3 receptor antagonist activity, CHO-K1 cells, α,β-Met-ATP, read-out: h-P2X3 IC50
[4] = Table 9, human P2X3 receptor antagonist activity, CHO-K1 cells, α,β-Met-ATP, read-out: h-P2X3 IC50

Structure (SMILES): COc1cc(CN2C(=O)N3CC(C(C)C)N=C3c3ncc(C(=O)NC4CCOCC4)cc32)cc(OC)c1 (stereo not shown) [Example 58, 6-(3,5-dimethoxybenzyl)-5-oxo-2-(propan-2-yl)-n-(tetrahydro-2H-pyran-4-yl)-2,3,5,6-tetrahydroimidazo[1,2-c]pyrido[2,3-e]pyrimidine-8-carboxamide]
- IC50 [1]: 9.2 µM

Structure (SMILES): CC(C)Cc1cn2c(=O)n(Cc3ccc(Cl)cc3)c3cc(N4CC5(COC5)C4)cnc3c2n1 [Example 73, 6-(4-chlorobenzyl)-2-(2-methylpropyl)-8-(2-oxa-6-azaspiro[3.3]heptan-6-yl)imidazo[1,2-c]pyrido[2,3-e]pyrimidin-5(6H)-one]
- IC50 [2]: 0.917 µM

Structure (SMILES): COc1ccc(CN2C(=O)N3CC(C(C)C)N=C3c3ncc(N4CC5(COC5)C4)cc32)cc1 (stereo not shown) [Example 19, 6-(4-methoxybenzyl)-8-(2-oxa-6-azaspiro[3.3]heptan-6-yl)-2-(propan-2-yl)-2,6-dihydroimidazo[1,2-c]pyrido[2,3-e]pyrimidin-5(3H)-one]
- IC50 [1]: 5.51 µM

Structure (SMILES): COc1ccc(Cc2nn3c(C(C)(C)C)nnc3c3ncc(N4CCOCC4)cc23)cc1 [Example 123, 3-tert-butyl-6-(4-methoxybenzyl)-8-(morpholin-4-yl)pyrido[2,3-d][1,2,4]triazolo[4,3-b]pyridazine]
- IC50 [3]: 0.246 µM

Structure (SMILES): COC1CCN(c2cnc3c(c2)N(Cc2ccc(Cl)cc2)C(=O)N2CC(C(C)C)N=C32)CC1 (stereo not shown) [Example 16, 6-(4-chlorobenzyl)-8-(4-methoxypiperidin-1-yl)-2-(propan-2-yl)-2,6-dihydroimidazo[1,2-c]pyrido[2,3-e]pyrimidin-5(3H)-one]
- IC50 [1]: 2.23 µM

Structure (SMILES): Cc1ccc(Cn2c(=O)n3cc(CC(C)C)nc3c3ncccc32)cc1 [Example 72, 6-(4-methylbenzyl)-2-(2-methylpropyl)imidazo[1,2-c]pyrido[2,3-e]pyrimidin-5(6H)-one]
- IC50 [2]: 1.39 µM

Structure (SMILES): O=c1n(Cc2ccc(Cl)cc2)c2cc(N3CCOCC3)cnc2c2nnc(COC3CCOCC3)n12 [Example 188, 6-(4-chlorobenzyl)-8-(morpholin-4-yl)-3-[(tetrahydro-2H-pyran-4-yloxy)methyl]pyrido[2,3-e][1,2,4]triazolo[4,3-c]pyrimidin-5(6H)-one]
- IC50 [4]: 0.528 µM

Structure (SMILES): COCC1CN(c2cnc3c(c2)N(Cc2ccc(Cl)cc2)C(=O)N2CC(C(C)C)N=C32)C1 (stereo not shown) [Example 17, 6-(4-chlorobenzyl)-8-[3-(methoxymethyl)azetidin-1-yl]-2-(propan-2-y1)-2,6-dihydroimidazo[1,2-c]pyrido[2,3-e]pyrimidin-5(3H)-one]
- IC50 [1]: 0.69 µM

Structure (SMILES): COc1ccc(Cn2c(=O)n3c(C(C)(C)C)nnc3c3ncc(N4CCOCC4)cc32)cc1 [Example 96, 3-tert-butyl-6-(4-methoxybenzyl)-8-(morpholin-4-yl)pyrido[2,3-e][1,2,4]triazolo[4,3-c]pyrimidin-5(6H)-one]
- IC50 (running text b1263, read-out: inhibition (human P2X3 receptor)): 0.0207 µM

Structure (SMILES): COc1cc(CN2C(=O)N3CC(C)N=C3c3ncc(N4CCOCC4)cc32)cc(OC)c1 (stereo not shown) [Example 3]
- IC50 [1]: 1.16 µM

Structure (SMILES): Cc1c(C(C)C)nc2c3ncc(N4CCOCC4)cc3n(Cc3ccc(Cl)cc3)c(=O)n12 [Example 90]
- IC50 [2]: 0.332 µM

Structure (SMILES): COc1ccc(CN2C(=O)N3CC(C(C)C)N=C3c3ncc(N4CCOCC4)cc32)cc1 (stereo not shown) [Example 18, 6-(4-methoxybenzyl)-8-(morpholin-4-yl)-2-(propan-2-yl)-2,6-dihydroimidazo[1,2-c]pyrido[2,3-e]pyrimidin-5(3H)-one]
- IC50 [1]: 0.301 µM

Structure (SMILES): CC(C)C1C(=O)N=C2c3ncc(N4CCOCC4)cc3N(Cc3ccc(Cl)cc3)C(=O)N21 (stereo not shown) [Example 163, 6-(4-chlorobenzyl)-8-(morpholin-4-yl)-3-(propan-2-yl)imidazo[1,2-c]pyrido[2,3-e]pyrimidine-2,5(3H,6H)-dione]
- IC50 [4]: 0.278 µM

Structure (SMILES): COc1ccc(Cn2c(=O)n3c(C)c(C(C)C)nc3c3ncc(N4CC5(COC5)C4)cc32)cc1 [Example 93, 6-(4-methoxybenzyl)-3-methyl-8-(2-oxa-6-azaspiro[3.3]heptan-6-yl)-2-(propan-2-yl)imidazo[1,2-c]pyrido[2,3-e]pyrimidin-5(6H)-one]
- IC50 [2]: 1.01 µM

Structure (SMILES): CCC1CN2C(=O)N(Cc3ccc(Cl)cc3)c3cc(N4CCOCC4)cnc3C2=N1 (stereo not shown) [Example 50, 6-(4-chlorobenzyl)-2-ethyl-8-(morpholin-4-y1)-2,6-dihydroimidazo[1,2-c]pyrido[2,3-e]pyrimidin-5(3H)-one]
- IC50 [1]: 0.28 µM

Structure (SMILES): O=C1N2CC3(CCOCC3)N=C2c2ncc(N3CCOCC3)cc2N1Cc1ccc(Cl)cc1 [Example 40, 6-(4-chlorobenzyl)-8-(morpholin-4-yl)-2′,3′,5′,6′-tetrahydrospiro[imidazo[1,2-c]pyrido[2,3-e]pyrimidine-2,4′-pyran]-5(6H)-one]
- IC50 [1]: 1.05 µM

Structure (SMILES): CC(C)CC1CN=C2c3ncc(N4CCOCC4)cc3N(Cc3ccc(Cl)cc3)C(=O)N21 (stereo not shown) [Example 31, 6-(4-chlorobenzyl)-3-(2-methylpropyl)-8-(morpholin-4-yl)-2,6-dihydroimidazo[1,2-c]pyrido[2,3-e]pyrimidin-5(3H)-one]
- IC50 [1]: 0.229 µM

Structure (SMILES): O=C1N(Cc2ccc(Cl)cc2)c2cc(N3CCOCC3)cnc2C2=NCC(C3CC3)N12 (stereo not shown) [Example 12, 6-(4-chlorobenzyl)-3-cyclopropyl-8-(morpholin-4-yl)-2,6-dihydroimidazo[1,2-c]pyrido[2,3-e]pyrimidin-5(3H)-one]
- IC50 [1]: 0.428 µM

Structure (SMILES): COCC1CN(c2cnc3c(c2)c(Cc2ccc(OC)cc2)nn2c(CC(C)C)nnc32)C1 [Example 124, 6-(4-methoxybenzyl)-8-[3-(methoxymethyl)azetidin-1-yl]-3-(2-methylpropyl)pyrido[2,3-d][1,2,4]triazolo[4,3-b]pyridazine]
- IC50 [3]: 2.82 µM

Structure (SMILES): COc1cc(CN2C(=O)N3CC(C)(C)N=C3c3ncc(N4CCOCC4)cc32)cc(OC)c1 [Example 161, 6-(3,5-dimethoxybenzyl)-2,2-dimethyl-8-(morpholin-4-yl)-2,6-dihydroimidazo[1,2-c]pyrido[2,3-e]pyrimidin-5(3H)-one]
- IC50 [4]: 4.29 µM

Structure (SMILES): COc1ccc(Cn2c(=O)n3c(CC(C)C)nnc3c3ncc(N4CCOCC4)cc32)cc1 [Example 104, 6-(4-methoxybenzyl)-3-(2-methylpropyl)-8-(morpholin-4-yl)pyrido[2,3-e][1,2,4]triazolo[4,3-c]pyrimidin-5(6H)-one]
- IC50 [2]: 0.734 µM

Structure (SMILES): COc1cc(Cn2c(=O)n3c(C)c(C)nc3c3ncc(NCC4COC4)cc32)cc(OC)c1 [Example 70, 6-(3,5-dimethoxybenzyl)-2,3-dimethyl-8-{[(oxetan-3-yl)methyl]amino}imidazo[1,2-c]pyrido[2,3-e]pyrimidin-5(6H)-one]
- IC50 [2]: 0.139 µM

Structure (SMILES): Cc1ncccc1Cc1nnc2c3ncc(N4CCOCC4)cc3n(Cc3ccc(Cl)cc3)c(=O)n12 [Example 106, 6-(4-chlorobenzyl)-3-[(2-methylpyridin-3-yl)methyl]-8-(morpholin-4-yl)pyrido[2,3-e][1,2,4]triazolo[4,3-c]pyrimidin-5(6H)-one]
- IC50 [2]: 0.0406 µM

Structure (SMILES): CCC1CCN2C(=O)N(Cc3ccc(Cl)cc3)c3cc(N4CCOCC4)cnc3C2=N1 (stereo not shown) [Example 154, 5-(4-chlorobenzyl)-10-ethyl-3-(morpholin-4-yl)-5,8,9,10-tetrahydro-6H-pyrido[2,3-e]pyrimido[1,2-c]pyrimidin-6-one]
- IC50 [4]: 1.05 µM

Structure (SMILES): COc1ccc(CN2C(=O)N3CC(C(C)C)N=C3c3ncc(N4CCC(CO)CC4)cc32)cc1 (stereo not shown) [Example 20]
- IC50 [1]: 1.14 µM

Structure (SMILES): COc1cc(Cn2c(=O)n3c(C)nnc3c3ncc(N4CCOCC4)cc32)cc(OC)c1 [Example 101, 6-(3,5-dimethoxybenzyl)-3-methyl-8-(morpholin-4-yl)pyrido[2,3-e][1,2,4]triazolo[4,3-c]pyrimidin-5(6H)-one]
- IC50 [2]: 2.44 µM

Structure (SMILES): O=C1N2CC(C3CCCCC3)N=C2c2ncc(N3CCOCC3)cc2N1Cc1ccc(Cl)cc1 (stereo not shown) [Example 25, 6-(4-chlorobenzyl)-2-cyclohexyl-8-(morpholin-4-yl)-2,6-dihydroimidazo[1,2-c]pyrido[2,3-e]pyrimidin-5(3H)-one]
- IC50 [1]: 0.389 µM

Structure (SMILES): CCC1CN2C(=O)N(Cc3ccc(OC)cc3)c3cc(N4CCOCC4)cnc3C2=N1 (stereo not shown) [Example 52, 2-ethyl-6-(4-methoxybenzyl)-8-(morpholin-4-y1)-2,6-dihydroimidazo[1,2-c]pyrido[2,3-e]pyrimidin-5(3H)-one]
- IC50 [1]: 1.25 µM

Structure (SMILES): CC(C)(C)c1nnc2c3ncc(N4CCC(N)CC4)cc3c(Cc3ccc(Cl)cc3)nn12 [Example 139, 1-[5-tert-butyl-8-(4-chlorobenzyl)-3,4,6,7,13-pentazatricyclo[7.4.0.02,6]trideca-1(9),2,4,7,10,12-hexaen-11-yl]piperidin-4-amine]
- IC50 [3]: 0.379 µM

Structure (SMILES): COc1cc(Cn2c(=O)n3cc(CC(C)C)nc3c3ncc(N4CCN(C(=O)CO)CC4)cc32)cc(OC)c1 [Example 80, 6-(3,5-dimethoxybenzyl)-8-[4-(hydroxyacetyl)piperazin-1-y1]-2-(2-methylpropyl)imidazo[1,2-c]pyrido[2,3-e]pyrimidin-5(6H)-one]
- IC50 [2]: 1.53 µM

Structure (SMILES): COc1ccc(CN2C(=O)N3C(=NCC3C3CCCCC3)c3ncc(N4CCOCC4)cc32)cc1 (stereo not shown) [Example 24, 3-cyclohexyl-6-(4-methoxybenzyl)-8-(morpholin-4-yl)-2,6-dihydroimidazo[1,2-c]pyrido[2,3-e]pyrimidin-5(3H)-one]
- IC50 [1]: 0.515 µM
